Common to all, as to experiment: DTP human tumour cell line panel, 48 h
The test system of experiment [1] is A549.
Experiment [2] relates to ACHN.
Experiment [3] deals with CAKI-1.
Experiment [4] deals with HL-60.
Experiment [5] concerns HOP-62.
Experiment [6] concerns KM12.
Experiment [7] deals with LOX IMVI.
Experiment [8] deals with Malme-3M.
Experiment [9] has as its system NCI-H226.
The subject of experiment [10] is RXF 393.
The test system of experiment [11] is SF-295.
Experiment [12] concerns SK-MEL-28.
Experiment [13] has as its system SK-MEL-5.
The subject of experiment [14] is TK-10.
The test system of experiment [15] is U-251.
Experiment [16] has as its system SR.

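Exposure lasted 48 hours, with cells grown in 96-well plates and compounds tested at five concentrations. Abbreviation: GI50, concentration required for 50% inhibition of growth.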 Activity calls are given as the source filed them. No stated cut-off is given here; in the data, active = GI50 up to about 1.1 µM and inactive = higher.

Regarding `O=C1CCC2(c3ccccc3)Nc3ncccc3N12` (stereo not drawn), the GI50 in experiment [1], in experiment [2], in experiment [3], in experiment [4], in experiment [5] and in experiment [6] was > 100 µM (inactive) throughout. Moreover, the GI50 in experiment [7], in [8], in [9], in experiment [10], in experiment [11] and in [12] was > 100 µM (inactive) in each case. The GI50 in experiment [13], in experiment [14] and in experiment [15] was > 100 µM (inactive) in each case.

As for `Cn1c2cccc3nnc4cccc(c4c32)n1C`, the GI50 in experiment [1] is > 100 µM (inactive); in [2], > 100 µM (inactive); in [3], 21.2 µM (inactive); in experiment [4] it was > 100 µM (inactive); in [6], > 100 µM (inactive); in experiment [7], > 100 µM (inactive). Moreover, the GI50 in experiment [8] was > 100 µM (inactive); in experiment [9], 45.8 µM (inactive); in experiment [10], > 100 µM (inactive); in experiment [11] it was > 100 µM (inactive); in experiment [12], > 100 µM (inactive); in [13], > 100 µM (inactive). Also, the GI50 in experiment [15] was > 100 µM (inactive).

As for `CC(=O)Oc1cc(OC(C)=O)c2cc3c(cc2c1OC(C)=O)C(=O)C1(CCCC1)C3=O`, the GI50 in [1] was 19.1 µM (inactive); in experiment [2] it was 17.7 µM (inactive); in [3] it was 11.4 µM (inactive); in [4], 20.8 µM (inactive); in experiment [5], 21.4 µM (inactive); in [7] it was 14.3 µM (inactive). The GI50 was 17.9 µM (inactive) in [8]; 17.2 µM (inactive) in experiment [10]; 16.3 µM (inactive) in [11]; 15.6 µM (inactive) in [12]; 17.2 µM (inactive) in experiment [14]; 18.1 µM (inactive) in experiment [15].

With `COc1ccc(N2C(=O)C(N3C(=O)C=CC3=O)C2C=O)cc1` (stereo not drawn), the GI50 in [1], in [2], in experiment [3], in experiment [4], in experiment [5] and in [6] was > 100 µM (inactive) each time. Also, the GI50 in [7], in experiment [8], in experiment [11], in experiment [12], in experiment [13] and in experiment [16] was > 100 µM (inactive) in each case. Besides, the GI50 in [14] and in experiment [15] was > 100 µM (inactive) throughout.

Take `CN(C)CCC(/C=C/c1ccccc1)=N\Nc1ccccc1`: the GI50 in [1] is 1.73 µM (inactive); in [2] it was 0.37 µM (active); in experiment [4], 0.564 µM (active); in experiment [5], 2.59 µM (inactive); in [6], 0.847 µM (active); in [7], 0.0493 µM (active). In addition, the GI50 is 3.07 µM (inactive) in [8]; 5.83 µM (inactive) in [10]; 0.451 µM (active) in experiment [11]; 1.8 µM (inactive) in experiment [12]; 3.48 µM (inactive) in [13]; 1.6 µM (inactive) in experiment [14]. Also, the GI50 in [15] was 1.83 µM (inactive).

Regarding `CCCC1C(=O)C(CC)Cc2c(OC)ccc(OC)c21` (stereo not drawn), the GI50 in experiment [1], in experiment [2], in experiment [3], in experiment [4], in experiment [5] and in experiment [6] was > 100 µM (inactive) throughout. In addition, the GI50 in [7], in experiment [8], in experiment [9], in experiment [10], in [11] and in experiment [12] was > 100 µM (inactive) in each case. The GI50 in experiment [13], in [14] and in [15] was > 100 µM (inactive) in each case.

Turning to `COc1cc(C)c2c(c1)CN1CN2Cc2cc(OC)cc(C)c21`, the GI50 in [1] is 96.4 µM (inactive); in experiment [2], 37.8 µM (inactive); in experiment [3] it was > 100 µM (inactive); in experiment [4] it was 21.4 µM (inactive); in [5] it was 65.6 µM (inactive); in experiment [6] it was 58.2 µM (inactive). The GI50 was 66.2 µM (inactive) in [7]; 67.9 µM (inactive) in [8]; 49.5 µM (inactive) in experiment [9]; 52.4 µM (inactive) in [11]; 3.66 µM (inactive) in experiment [13]; 36.1 µM (inactive) in experiment [16]. Also, in [15], the GI50 was 50.6 µM (inactive).

For the compound `O=C1c2ccccc2C(=O)N1CCn1ccc(NC(c2ccccc2)(c2ccccc2)c2ccccc2)nc1=O`, the GI50 in experiment [1] was 28.2 µM (inactive); in [2], 22.5 µM (inactive); in [3], 9.62 µM (inactive); in experiment [4], 19 µM (inactive); in [5], 17.5 µM (inactive); in [6] it was 20.8 µM (inactive). The GI50 in [7] is 17.1 µM (inactive); in experiment [8], 20.3 µM (inactive); in experiment [9], 18.7 µM (inactive); in experiment [10] it was 18.8 µM (inactive); in experiment [11] it was 15.1 µM (inactive); in experiment [12], 18.2 µM (inactive). Further, the GI50 is 17.5 µM (inactive) in experiment [13], 26.9 µM (inactive) in experiment [14] and 16.4 µM (inactive) in experiment [15].

As to `CCN(CC)CC(=O)N1CCc2c([nH]c3ccccc23)C1c1cccnc1` (stereo not drawn), the GI50 in experiment [1], in [2], in experiment [3], in [4], in [5] and in experiment [6] was > 100 µM (inactive) in each case. Further, the GI50 in experiment [7], in [11], in experiment [12], in experiment [13], in [14] and in [15] was > 100 µM (inactive) in each case.

In the case of `O=C(NC1C2CC3CC(C2)CC1C3)c1ccncn1` (stereo not drawn), the GI50 in experiment [1], in [2], in [3], in experiment [4], in experiment [5] and in [6] was > 100 µM (inactive) throughout. In addition, the GI50 in experiment [8], in experiment [9], in experiment [11], in experiment [12], in experiment [13] and in experiment [15] was > 100 µM (inactive) each time.

Turning to `COc1cc([C@@H]2c3cc4c(cc3[C@@H](NCc3cccc(F)c3)C3COC(=O)[C@@H]32)OCO4)cc(OC)c1O` (stereo partly drawn), the GI50 in experiment [1] was 1.17 µM (inactive); in experiment [2] it was 1.67 µM (inactive); in experiment [3], 6.85 µM (inactive); in experiment [4], 1.19 µM (inactive); in [5] it was 1.51 µM (inactive); in [6], 7.01 µM (inactive). Moreover, the GI50 was 3.58 µM (inactive) in [7]; 4.69 µM (inactive) in [8]; 1.03 µM (active) in [9]; 8.85 µM (inactive) in [10]; 2.24 µM (inactive) in [11]; 8.61 µM (inactive) in experiment [12]. The GI50 is 7.13 µM (inactive) in [13], 9.68 µM (inactive) in experiment [14] and 1.23 µM (inactive) in [15].

`COc1cc(C[S+]2CCCC2)c(SC)cc1C[S+]1CCCC1`: the GI50 in experiment [1], in [2], in experiment [3], in experiment [4], in experiment [5] and in [6] was > 100 µM (inactive) in each case. Also, the GI50 in experiment [7], in experiment [8], in experiment [9], in [10], in experiment [11] and in experiment [12] was > 100 µM (inactive) each time. The GI50 in experiment [13], in experiment [14] and in experiment [15] was > 100 µM (inactive) each time.

With `CC(=O)O[C@H]1[C@H](O[C@H]2CC[C@]34C[C@]35CC[C@]3(C)[C@@H]([C@@]6(C)CC[C@@H](C(C)(C)O)O6)[C@@H](O)C[C@@]3(C)[C@@H]5C[C@H](O[C@@H]3O[C@H](CO)[C@@H](O)[C@H](O)[C@H]3O)[C@H]4C2(C)C)OC[C@@H](O)[C@@H]1O`, the GI50 was > 100 µM (inactive) in [1]; > 100 µM (inactive) in experiment [2]; > 100 µM (inactive) in experiment [3]; 35.6 µM (inactive) in experiment [4]; > 100 µM (inactive) in experiment [5]; > 100 µM (inactive) in experiment [6]. Further, the GI50 in experiment [7] was 44 µM (inactive); in experiment [8] it was > 100 µM (inactive); in experiment [9], > 100 µM (inactive); in experiment [10], > 100 µM (inactive); in [11] it was > 100 µM (inactive); in experiment [12], > 100 µM (inactive). For the same compound, the figures for the GI50 in experiment [13], in experiment [14] and in experiment [15] were > 100 µM (inactive), > 100 µM (inactive) and 55 µM (inactive), respectively.

In the case of `CC(=O)Oc1ccccc1` [ACETIC ACID PHENYL ESTER], the GI50 in experiment [1], in experiment [2], in [3], in experiment [4], in experiment [5] and in experiment [6] was > 100 µM (inactive) throughout. For the same compound, the GI50 in experiment [7], in experiment [8], in experiment [9], in [10], in [11] and in experiment [12] was > 100 µM (inactive) in each case. Also, the GI50 in [13] and in experiment [15] was > 100 µM (inactive) in each case.

The values above are taken from ChEMBL document CHEMBL1201862, “PubChem BioAssay data set” (2004).
